Test results reported in patent US20080139564A1, “SUBSTITUTED PHENYL PROPYL AMINES AS HISTAMINE H3 RECEPTOR AND SEROTONIN TRANSPORTER MODULATORS” (priority 2006, published 2008).
pKi: −log10 of the molar value.

Assays:
Rat SERT = biological target: T1, Rat SERT (Rattus norvegicus, UniProt P31652); experiment: Rat brain SERT binding ([3H]-Citalopram displacement, rat brain membranes); details: 0.6 nM [3H]-Citalopram, 60 min at 25° C.
T1 construct: A rat brain without cerebellum (Zivic Laboratories, Inc.—Pittsburgh, Pa.) was homogenized; tissue Zivic Laboratories, Inc; host or cells: rat brain without cerebellum
Description: A rat brain without cerebellum (Zivic Laboratories, Inc.—Pittsburgh, Pa.) was homogenized in a 52.6 mM Tris pH 8/126.4 mM NaCl/5.26 mM KCl mixture and centrifuged at 1,000 rpm for 5 min. The supernatant was removed and re-centrifuged at 15,000 rpm for 30 min. Pellets were re-homogenized in a 52.6 mM Tris pH8/126.4 mM NaCl/5.26 mM KCl mixture. Membranes were incubated with 0.6 nM [^3H]-Citalopram plus/minus test compounds for 60 min at 25° C. and harvested by rapid filtration over GF/C glass fiber filters (pretreated with 0.3% polyethylenimine) followed by four washes with ice-cold buffer. Nonspecific binding was defined in the presence of 100 μM fluoxetine.

human SERT = biological target: T2, human SERT (Homo sapiens, UniProt P31645); experiment: Human SERT binding (3H-citalopram displacement, HEK293 membranes); details: 3H-citalopram 3.1 nM, rt for 1 h
T2 construct: expressed in transfected cells; host or cells: HEK293
Description: Homogenized HEK293 (Human Embryonic Kidney) membranes expressing the human SERT were incubated with ^3H-citalopram (SERT) at rt for 1 h in 50 mM Tris, 120 mM NaCl, 5 mM KCl (pH 7.4). Nonspecific binding was determined in the presence of 10 μM fluoxetine for the SERT. The membranes were washed and the radioactivity was counted as above. Calculations for Ki at the SERT were based on a Kd value for ^3H-citalopram and a ligand concentration of 3.1 nM.

human H3 receptor = biological target: T3, human H3 receptor (Homo sapiens, UniProt Q9Y5N1); experiment: H3 receptor binding (N-[3H]-α-methylhistamine displacement, SK-N-MC cell membranes); details: 0.8 nM N-[3H]-α-methylhistamine, 60 min at 25° C.
T3 construct: expressed in transfected cells
Description: Binding of compounds to the cloned human H3 receptor, stably expressed in SK-N-MC cells, was performed (Lovenberg, T. W. et al. J. Pharmacol. Exp. Ther. 2000, 293, 771-778). Briefly, cell pellets from SK-N-MC cells expressing the human H3 receptor were homogenized in 50 mM Tris-HCl/5 mM EDTA and re-centrifuged at 30,000 g for 30 min. Pellets were re-homogenized in 50 mM Tris/5 mM EDTA (pH 7.4). Membranes were incubated with 0.8 nM N—[^3H]-α-methylhistamine plus/minus test compounds for 60 min at 25° C. and harvested by rapid filtration over GF/C glass fiber filters (pretreated with 0.3% polyethylenimine) followed by four washes with ice-cold buffer. Nonspecific binding was defined in the presence of 10 μM histamine.

T1 sequence (P31652 whole entry): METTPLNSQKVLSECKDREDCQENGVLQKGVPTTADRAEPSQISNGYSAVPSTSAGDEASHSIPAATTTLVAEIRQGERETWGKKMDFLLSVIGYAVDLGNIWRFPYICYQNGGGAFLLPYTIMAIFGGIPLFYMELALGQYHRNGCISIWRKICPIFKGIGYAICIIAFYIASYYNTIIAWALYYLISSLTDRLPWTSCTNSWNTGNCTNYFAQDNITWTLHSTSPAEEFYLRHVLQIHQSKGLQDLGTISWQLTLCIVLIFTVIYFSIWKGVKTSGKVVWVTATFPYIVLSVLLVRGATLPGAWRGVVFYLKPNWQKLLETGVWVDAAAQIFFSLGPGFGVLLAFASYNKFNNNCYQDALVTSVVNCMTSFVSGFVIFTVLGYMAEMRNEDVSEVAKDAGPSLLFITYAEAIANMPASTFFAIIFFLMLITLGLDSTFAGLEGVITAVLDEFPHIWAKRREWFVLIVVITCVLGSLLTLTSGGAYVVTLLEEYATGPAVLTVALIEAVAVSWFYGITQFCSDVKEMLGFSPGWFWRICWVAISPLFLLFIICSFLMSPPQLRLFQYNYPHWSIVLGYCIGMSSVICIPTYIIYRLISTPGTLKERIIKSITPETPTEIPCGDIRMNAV
T2 sequence (P31645 whole entry): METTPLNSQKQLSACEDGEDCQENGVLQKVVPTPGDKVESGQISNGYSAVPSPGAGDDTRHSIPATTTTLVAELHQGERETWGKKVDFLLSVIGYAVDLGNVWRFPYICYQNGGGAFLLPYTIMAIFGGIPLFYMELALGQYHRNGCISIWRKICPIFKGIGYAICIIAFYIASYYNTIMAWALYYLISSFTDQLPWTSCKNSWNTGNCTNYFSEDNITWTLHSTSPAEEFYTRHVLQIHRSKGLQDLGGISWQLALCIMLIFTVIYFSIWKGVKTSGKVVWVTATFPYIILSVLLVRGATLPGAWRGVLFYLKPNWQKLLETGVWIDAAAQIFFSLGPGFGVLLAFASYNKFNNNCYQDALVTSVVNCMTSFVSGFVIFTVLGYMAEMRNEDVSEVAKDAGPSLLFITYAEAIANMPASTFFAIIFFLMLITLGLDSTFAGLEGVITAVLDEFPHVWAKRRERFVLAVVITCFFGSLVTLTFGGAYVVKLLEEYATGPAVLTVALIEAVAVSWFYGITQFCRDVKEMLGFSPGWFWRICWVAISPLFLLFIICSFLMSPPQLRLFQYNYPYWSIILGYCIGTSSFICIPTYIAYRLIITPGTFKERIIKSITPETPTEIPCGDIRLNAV
T3 sequence (Q9Y5N1 whole entry): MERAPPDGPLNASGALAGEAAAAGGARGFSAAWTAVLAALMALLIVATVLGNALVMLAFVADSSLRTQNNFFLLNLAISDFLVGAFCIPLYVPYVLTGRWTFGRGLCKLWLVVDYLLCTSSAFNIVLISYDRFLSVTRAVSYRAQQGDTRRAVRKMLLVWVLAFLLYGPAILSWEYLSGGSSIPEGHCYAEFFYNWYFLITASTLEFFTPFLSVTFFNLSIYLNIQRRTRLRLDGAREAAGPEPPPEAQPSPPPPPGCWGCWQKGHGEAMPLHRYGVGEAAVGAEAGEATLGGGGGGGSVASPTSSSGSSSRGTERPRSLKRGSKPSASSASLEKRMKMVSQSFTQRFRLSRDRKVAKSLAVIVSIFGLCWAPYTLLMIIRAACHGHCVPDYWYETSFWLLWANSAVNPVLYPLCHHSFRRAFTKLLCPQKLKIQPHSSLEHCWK

Row | SMILES | pKi (Rat SERT) | pKi (human SERT) | pKi (human H3 receptor)
1 | CN(C)CCC(Oc1ccc(C(F)(F)F)cc1)c1ccc(C#CCCN2CCOCC2)cc1 (centres unmarked) [Example 27, Dimethyl-[3-[4-(4-morpholin-4-yl-but-1-ynyl)-phenyl]-3-(4-trifluoromethyl-phenoxy)-propyl]-amine] | 7.10 |  | 7.22
2 | CN(C)CCC(Oc1ccc(C(F)(F)F)cc1)c1ccc(C#CCCN2CCSCC2)cc1 (centres unmarked) [Example 28, Dimethyl-[3-[4-(4-thiomorpholin-4-yl-but-1-ynyl)-phenyl]-3-(4-trifluoromethyl-phenoxy)-propyl]-amine] | 6.77 |  | 6.91
3 | CC(C)N1CCN(CCC#Cc2ccc(C(CCN(C)C)Oc3ccc(C(F)(F)F)cc3)cc2)CC1 (centres unmarked) [Example 29, [3-{4-[4-(4-Isopropyl-piperazin-1-yl)-but-1-ynyl]-phenyl}-3-(4-trifluoromethyl-phenoxy)-propyl]-dimethyl-amine] | 7.41 |  | 6.59
4 | CC(C)N1CCN(C(=O)c2ccc(OC(CCN(C)C)c3ccc(C(F)(F)F)cc3)cc2)CC1 (centres unmarked) [Example 46, {4-[3-Dimethylamino-1-(4-trifluoromethyl-phenyl)-propoxy]-phenyl}-(4-isopropyl-piperazin-1-yl)-methanone] | 7.24 |  | 9.00
5 | CCCCN1CCN(C(=O)c2ccc(C(CCN(C)C)Oc3ccc(C(F)(F)F)cc3)cc2)CC1 (centres unmarked) [Example 48, (4-Butyl-piperazin-1-yl)-{4-[3-dimethylamino-1-(4-trifluoromethylphenoxy)-propyl]-phenyl}-methanone] | 7.07 |  | 7.77
6 | CCCCN1CCN(Cc2ccc(C(CCN(C)C)Oc3ccc(C(F)(F)F)cc3)cc2)CC1 (centres unmarked) [Example 49, [3-[4-(4-Butyl-piperazin-1-ylmethyl)-phenyl]-3-(4-trifluoromethylphenoxy)-propyl]-dimethyl-amine] | 7.32 |  | 7.14
7 | CN(C)CCC(Oc1ccc(C#CCCN2CCOCC2)cc1)c1ccccc1 (centres unmarked) [Example 61, Dimethyl-{3-[4-(4-morpholin-4-yl-but-1-ynyl)-phenoxy]-3-phenyl-propyl}-amine] | 6.97 |  | 6.99
8 | CC(C)N1CCN(CCC#Cc2ccc(OC(CCN(C)C)c3ccc(C(F)(F)F)cc3)cc2)CC1 (centres unmarked) [Example 62, [3-{4-[4-(4-Isopropyl-piperazin-1-yl)-but-1-ynyl]-phenoxy}-3-(4-trifluoromethyl-phenyl)-propyl]-dimethyl-amine] | 6.78 |  | 6.84
9 | CN(C)CCC(Oc1ccc(C#CCCN2CCSCC2)cc1)c1ccccc1 (centres unmarked) [Example 63, Dimethyl-{3-phenyl-3-[4-(4-thiomorpholin-4-yl-but-1-ynyl)phenoxy]-propyl}-amine] | 7.28 |  | 7.74
10 | CN(C)CCC(Oc1ccc(C#CCCN2CCOCC2)cc1)c1ccc(C(F)(F)F)cc1 (centres unmarked) [Example 64, Dimethyl-[3-[4-(4-morpholin-4-yl-but-1-ynyl)-phenoxy]-3-(4-trifluoromethyl-phenyl)-propyl]-amine] | 6.47 |  | 5.40
11 | CN(C)CCC(Oc1ccc(C#CCCN2CCSCC2)cc1)c1ccc(C(F)(F)F)cc1 (centres unmarked) [Example 76, Dimethyl-[3-[4-(4-thiomorpholin-4-yl-but-1-ynyl)-phenoxy]-3-(4-trifluoromethyl-phenyl)-propyl]-amine] | 6.27 |  | 7.12
12 | CN(C)CCC(Oc1ccc(C(F)(F)F)cc1)c1ccc(C(=O)N2CCN(C3CCCCC3)CC2)cc1 (centres unmarked) [Example 78, (4-Cyclohexyl-piperazin-1-yl)-{4-[3-dimethylamino-1-(4-trifluoromethyl-phenoxy)-propyl]-phenyl}-methanone] | 6.65 |  | 7.66

Next, values leading:

Row | pKi (Rat SERT) | pKi (human SERT) | pKi (human H3 receptor) | SMILES
13 | 8.01 |  |  | CN(C)CCC(Oc1ccc(Cl)c(Cl)c1)c1ccc(OCCCN2CCCCC2)cc1 (single isomer, unassigned; (+)) [Example 75, (+)-{3-(3,4-Dichloro-phenoxy)-3-[4-(3-piperidin-1-yl-propoxy)phenyl]-propyl}-dimethyl-amine]
14 | 7.96 |  |  | CN(C)CCC(Oc1ccc(Cl)c(Cl)c1)c1ccc(OCCCN2CCCCC2)cc1 (single isomer, unassigned; (-)) [Example 74, (−){3-(3,4-Dichloro-phenoxy)-3-[4-(3-piperidin-1-yl-propoxy)phenyl]-propyl}-dimethyl-amine]
15 | 7.80 | 6.70 | 8.52 | CN(C)CCC(Oc1ccccc1)c1cccc(OCCCN2CCCCC2)c1 (centres unmarked) [Example 3, Dimethyl-[3-phenoxy-3-[3-(3-piperidin-1-yl-propoxy)-phenyl]-propyl]-amine]
16 | 8.89 | 8.00 | 9.05 | CSc1ccc(OC(CCN(C)C)c2ccc(OCCCN3CCCCC3)cc2)cc1 (centres unmarked) [Example 4, Dimethyl-{3-(4-methylsulfanyl-phenoxy)-3-[4-(3-piperidin-1-yl-propoxy)-phenyl]-propyl}-amine]
17 | 8.10 | 6.80 | 9.70 | CN(C)CCC(Oc1ccc(C#N)cc1)c1ccc(OCCCN2CCCCC2)cc1 (centres unmarked) [Example 5, 4-{3-Dimethylamino-1-[4-(3-piperidin-1-yl-propoxy)-phenyl]-propoxy}-benzonitrile]
18 | 8.22 |  |  | CN(C)CCC(Oc1ccc(Cl)c(Cl)c1)c1ccc(OCCCN2CCCCC2)cc1 (centres unmarked) [Example 9, {3-(3,4-Dichloro-phenoxy)-3-[4-(3-piperidin-1-yl-propoxy)-phenyl]-propyl}-dimethyl-amine]
19 |  | 8.15 | 8.77 | CN(C)CCC(Oc1cccc(Cl)c1)c1ccc(OCCCN2CCCCC2)cc1 (centres unmarked) [Example 14, {3-(3-Chloro-phenoxy)-3-[4-(3-piperidin-1-yl-propoxy)-phenyl]-propyl}-dimethyl-amine]
20 | 7.41 |  | 7.68 | CN(C)CCC(Oc1ccc(Cl)cc1)c1ccc(C#CCCN2CCCCC2)cc1 (centres unmarked) [Example 25, {3-(4-Chloro-phenoxy)-3-[4-(4-piperidin-1-yl-but-1-ynyl)-phenyl]-propyl}-dimethyl-amine]
21 | 7.37 |  | 7.96 | COc1ccc(OC(CCN(C)C)c2ccc(C#CCCN3CCSCC3)cc2)cc1 (centres unmarked) [Example 26, {3-(4-Methoxy-phenoxy)-3-[4-(4-thiomorpholin-4-yl-but-1-ynyl)phenyl]-propyl}-dimethyl-amine]
22 | 7.68 |  | 7.62 | CN(C)CCC(Oc1ccc(Cl)c(Cl)c1)c1ccc(C#CCCN2CCCCC2)cc1 (centres unmarked) [Example 30, {3-(3,4-Dichloro-phenoxy)-3-[4-(4-piperidin-1-yl-but-1-ynyl)phenyl]-propyl}-dimethyl-amine]
23 | 6.82 |  | 7.54 | CN(C)CCC(Oc1ccc(C#CCCN2CCSCC2)cc1)c1ccc(Cl)cc1 (centres unmarked) [Example 58, {3-(4-Chloro-phenyl)-3-[4-(4-thiomorpholin-4-yl-but-1-ynyl)phenoxy]-propyl}-dimethyl-amine]
24 | 6.74 |  | 7.25 | CN(C)CCC(Oc1ccc(C#CCCN2CCOCC2)cc1)c1ccc(Cl)cc1 (centres unmarked) [Example 59, {3-(4-Chloro-phenyl)-3-[4-(4-morpholin-4-yl-but-1-ynyl)-phenoxy]-propyl}-dimethyl-amine]
25 | 6.78 |  | 6.44 | CN(C)CCC(Oc1ccc(C#CCCN2CCCCC2)cc1)c1ccc(F)cc1 (centres unmarked) [Example 77, {3-(4-Fluoro-phenyl)-3-[4-(4-piperidin-1-yl-but-1-ynyl)-phenoxy]-propyl}-dimethyl-amine]
